Entries after “also recorded” stand apart in the source; their conditions may differ.
System: sC5b-9
Experiment: Phase 2a study: urinary sC5b-9 (MicroVue sC5b-9 Enzyme Immunoassay);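 note: urine from C3 glomerulopathy or IC-MPGN patients, sandwich ELISA capturing sC5b-9 via C9-ring monoclonal with HRP detection read at 450 nm, values raw or normalized to creatinine or albumin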
Details: for Urine sC5b-9 / sC5b-9/ALB / sC5b-9/Cr: 200 mg TID; for sC5b-9/ALB GEOMEAN / sC5b-9/ALB MEAN / sC5b-9/Cr MEAN / Urine sC5b-9 GEOMEAN / Urine sC5b-9 MEAN / sC5b-9/Cr GEOMEAN: patients A-F
Description: 10 patients with either C3 Glomerulopathy (C3G) or Immune-Complex Membranoproliferative Glomerulonephritis (IC-MPGN) are to be enrolled across two dose groups. […] Inclusion criteria include a clinical diagnosis of C3G (C3 glomerulonephritis [C3GN] or dense deposit disease [DDD], the 2 types of C3G) or idiopathic immune-complex membranoproliferative glomerulonephritis (IC-MPGN) by renal biopsy for at least 3 months prior to dosing, with the pathologic diagnosis verified by review of the renal biopsy by the study central pathologist. Patients must have low C3 levels (<50% of the lower limit of normal) and normal or near-normal C4 levels (>90% of the lower limit of normal).
To measure urinary sC5b-9 production, patient urine samples were tested utilizing the MicroVue sC5b-9 Enzyme Immunoassay for the quantitation of sC5b-9 in urine. […] The samples were tested utilizing the MicroVue sC5b-9 Enzyme Immunoassay for the quantitation of sC5b-9 urine, which is a three-step procedure utilizing a micro-assay plate coated with a mouse monoclonal antibody that binds specifically to the C9 ring of sC5b-9, HRP-conjugated antibodies to antigens of sC5b-9, and a chromogenic substrate. In step 1, standards, controls, and test specimens are added to micro-assay wells pre-coated with an anti-sC5b-9 specific monoclonal antibody. sC5b-9 present in the Standards, Controls, or specimens will bind to the immobilized sC5b-9 monoclonal antibody. After incubation, a wash cycle removes unbound material. […] In step 2, horseradish peroxidase (HRP)-conjugated antibodies to antigens of sC5b-9 are added to each test well. The enzyme conjugated antibodies bind to sC5b-9 that was captured by the monoclonal anti-sC5b-9 bound on the surface of the micro-assay wells. After incubation, a wash cycle removes unbound, excess conjugate. In step 3, a chromogenic enzyme substrate is added to each micro-assay well. The bound HRP-conjugate reacts with the substrate, forming a blue color. After incubation the enzyme reaction is stopped chemically, the color changes to yellow, and the color intensity is measured spectrophotometrically at 450 nm. The color intensity of the reaction mixture is proportional to the concentration of sC5b-9 present in the test specimens, standards, and controls. […] Measurements of urinary biomarkers are typically normalized to urine creatinine or albumin levels to account for variation in biomarker levels due to changes in urinary filtration rate.

CC(=O)c1nn(CC(=O)N2C[C@H](F)C[C@H]2C(=O)Nc2cccc(Br)n2)c2ccc(-c3cnc(C)nc3)cc12 [Compound 1, (2S,4R)-1-(2-(3-acetyl-5-(2-methylpyrimidin-5-yl)-1H-indazol-1-yl)acetyl)-N-(6-bromopyridin-2-yl)-4-fluoropyrrolidine-2-carboxamide]
Urine sC5b-9 (Patient D, Day 21 Taper): 44.0 ng/mL | sC5b-9/ALB (Patient D, Day 21 Taper): 18 ng/mg | sC5b-9/Cr (Patient D, Day 21 Taper): 10.5 µg/mmol | Urine sC5b-9 (Patient D, Follow-Up Day 24): 39.9 ng/mL | sC5b-9/ALB (Patient D, Follow-Up Day 24): 21 ng/mg | sC5b-9/Cr (Patient D, Follow-Up Day 24): 5.9 µg/mmol | Urine sC5b-9 (Patient D, Follow-Up Day 28): 57.8 ng/mL | sC5b-9/ALB (Patient D, Follow-Up Day 28): 21 ng/mg | sC5b-9/Cr (Patient D, Follow-Up Day 28): 12.0 µg/mmol | Urine sC5b-9 (Patient D, Follow-Up Day 49): 40.3 ng/mL | sC5b-9/ALB (Patient D, Follow-Up Day 49): 16 ng/mg | sC5b-9/Cr (Patient D, Follow-Up Day 49): 10.3 µg/mmol | Urine sC5b-9 (Patient D, Screen): 148.7 ng/mL | sC5b-9/ALB (Patient D, Screen): 34 ng/mg | sC5b-9/Cr (Patient D, Screen): 19.6 µg/mmol | sC5b-9/ALB (Patient E, Day 1/0 Hour): 127 ng/mg | sC5b-9/Cr (Patient E, Day 1/0 Hour): 54.0 µg/mmol | Urine sC5b-9 (Patient E, Day 1 predose): 959 ng/mL | Urine sC5b-9 (Patient E, Day 4): 538 ng/mL | sC5b-9/ALB (Patient E, Day 4): 61 ng/mg | Urine sC5b-9 (Patient E, Day 7): 484 ng/mL | sC5b-9/ALB (Patient E, Day 7/0 Hour): 59 ng/mg | sC5b-9/Cr (Patient E, Day 7/0 Hour): 31.5 µg/mmol | Urine sC5b-9 (Patient E, Day 10): 212 ng/mL | sC5b-9/ALB (Patient E, Day 10): 26 ng/mg | sC5b-9/Cr (Patient E, Day 10): 16.1 µg/mmol | Urine sC5b-9 (Patient E, Day 14): 112 ng/mL | sC5b-9/ALB (Patient E, Day 14): 19 ng/mg | sC5b-9/Cr (Patient E, Day 14): 5.0 µg/mmol | Urine sC5b-9 (Patient E, Day 15 Taper): 70 ng/mL | sC5b-9/ALB (Patient E, Day 15 Taper): 23 ng/mg | sC5b-9/Cr (Patient E, Day 15 Taper): 7.5 µg/mmol | Urine sC5b-9 (Patient E, Day 16 Taper): 42 ng/mL | sC5b-9/ALB (Patient E, Day 16 Taper): 15 ng/mg | sC5b-9/Cr (Patient E, Day 16 Taper): 4.2 µg/mmol | Urine sC5b-9 (Patient E, Day 17 Taper): 74 ng/mL | sC5b-9/ALB (Patient E, Day 17 Taper): 20 ng/mg | sC5b-9/Cr (Patient E, Day 17 Taper): 9.4 µg/mmol | Urine sC5b-9 (Patient E, Day 21 Taper): 97 ng/mL | sC5b-9/ALB (Patient E, Day 21 Taper): 50 ng/mg | sC5b-9/Cr (Patient E, Day 21 Taper): 12.7 µg/mmol | Urine sC5b-9 (Patient E, Follow-Up Day 24): 188 ng/mL | sC5b-9/ALB (Patient E, Follow-Up Day 24): 50 ng/mg | sC5b-9/Cr (Patient E, Follow-Up Day 24): 15.1 µg/mmol | Urine sC5b-9 (Patient E, Follow-Up Day 28): 141 ng/mL | sC5b-9/ALB (Patient E, Follow-Up Day 28): 28 ng/mg | sC5b-9/Cr (Patient E, Follow-Up Day 28): 8.5 µg/mmol | Urine sC5b-9 (Patient E, Follow-Up Day 49): 217 ng/mL | sC5b-9/ALB (Patient E, Follow-Up Day 49): 42 ng/mg | sC5b-9/ALB (Patient F, Day 1/0 Hour): 120 ng/mg | sC5b-9/Cr (Patient F, Day 1/0 Hour): 35.2 µg/mmol | Urine sC5b-9 (Patient F, Day 1 predose): 348 ng/mL | Urine sC5b-9 (Patient F, Day 4): 43 ng/mL | sC5b-9/ALB (Patient F, Day 4): 58 ng/mg | sC5b-9/Cr (Patient F, Day 4): 8.8 µg/mmol | Urine sC5b-9 (Patient F, Day 7): 54 ng/mL | sC5b-9/ALB (Patient F, Day 7/0 Hour): 147 ng/mg | sC5b-9/Cr (Patient F, Day 7/0 Hour): 13.9 µg/mmol | Urine sC5b-9 (Patient F, Day 10): 34 ng/mL | Urine sC5b-9 (Patient F, Day 14): 62 ng/mL | sC5b-9/ALB (Patient F, Day 14): 37 ng/mg | sC5b-9/Cr (Patient F, Day 14): 6.7 µg/mmol | Urine sC5b-9 (Patient F, Day 15 Taper): 35 ng/mL | sC5b-9/ALB (Patient F, Day 15 Taper): 8 ng/mg | sC5b-9/Cr (Patient F, Day 15 Taper): 5.8 µg/mmol | Urine sC5b-9 (Patient F, Day 16 Taper): 25 ng/mL | sC5b-9/ALB (Patient F, Day 16 Taper): 30 ng/mg | sC5b-9/Cr (Patient F, Day 16 Taper): 7.0 µg/mmol | Urine sC5b-9 (Patient F, Day 17 Taper): 55 ng/mL | sC5b-9/ALB (Patient F, Day 17 Taper): 12 ng/mg | sC5b-9/Cr (Patient F, Day 17 Taper): 5.9 µg/mmol | Urine sC5b-9 (Patient F, Day 21 Taper): 104 ng/mL | sC5b-9/ALB (Patient F, Day 21 Taper): 24 ng/mg | sC5b-9/Cr (Patient F, Day 21 Taper): 8.2 µg/mmol | Urine sC5b-9 (Patient F, Follow-Up Day 24): 51 ng/mL | sC5b-9/ALB (Patient F, Follow-Up Day 24): 34 ng/mg | sC5b-9/Cr (Patient F, Follow-Up Day 24): 9.5 µg/mmol | Urine sC5b-9 (Patient F, Follow-Up Day 28): 65 ng/mL | sC5b-9/ALB (Patient F, Follow-Up Day 28): 57 ng/mg | sC5b-9/Cr (Patient F, Follow-Up Day 28): 14.4 µg/mmol | Urine sC5b-9 (Patient F, Follow-Up Day 49): 180 ng/mL | sC5b-9/ALB (Patient F, Follow-Up Day 49): 59 ng/mg | sC5b-9/Cr (Patient F, Follow-Up Day 49): 33.2 µg/mmol | sC5b-9/ALB GEOMEAN (Day 1/0 Hour): 125.0 ng/mg | sC5b-9/ALB MEAN (Day 1/0 Hour): 335.0 ng/mg | sC5b-9/Cr MEAN (Day 1/0 Hour): 163.6 µg/mmol | Urine sC5b-9 GEOMEAN (Day 1 predose): 210 ng/mL | Urine sC5b-9 MEAN (Day 1 predose): 1120 ng/mL | Urine sC5b-9 GEOMEAN (Day 4): 94 ng/mL | Urine sC5b-9 MEAN (Day 4): 472 ng/mL | sC5b-9/ALB GEOMEAN (Day 4): 80.6 ng/mg | sC5b-9/ALB MEAN (Day 4): 165.3 ng/mg | sC5b-9/Cr GEOMEAN (Day 4): 14.0 µg/mmol | sC5b-9/Cr MEAN (Day 4): 37.0 µg/mmol | Urine sC5b-9 GEOMEAN (Day 7): 91 ng/mL | Urine sC5b-9 MEAN (Day 7): 483 ng/mL | sC5b-9/ALB GEOMEAN (Day 7/0 Hour): 102.8 ng/mg | sC5b-9/ALB MEAN (Day 7/0 Hour): 171.5 ng/mg | sC5b-9/Cr GEOMEAN (Day 7/0 Hour): 17.1 µg/mmol | sC5b-9/Cr MEAN (Day 7/0 Hour): 38.0 µg/mmol | Urine sC5b-9 GEOMEAN (Day 10): 56 ng/mL | Urine sC5b-9 MEAN (Day 10): 231 ng/mL | Urine sC5b-9 GEOMEAN (Day 15 Taper): 66 ng/mL | Urine sC5b-9 MEAN (Day 15 Taper): 588 ng/mL | sC5b-9/ALB GEOMEAN (Day 15 Taper): 48.2 ng/mg | sC5b-9/ALB MEAN (Day 15 Taper): 192.6 ng/mg | sC5b-9/Cr GEOMEAN (Day 15 Taper): 11.9 µg/mmol | sC5b-9/Cr MEAN (Day 15 Taper): 55.8 µg/mmol | Urine sC5b-9 GEOMEAN (Day 17 Taper): 71 ng/mL | Urine sC5b-9 MEAN (Day 17 Taper): 488 ng/mL | sC5b-9/ALB GEOMEAN (Day 17 Taper): 51.5 ng/mg | sC5b-9/ALB MEAN (Day 17 Taper): 191.3 ng/mg | sC5b-9/Cr GEOMEAN (Day 17 Taper): 11.6 µg/mmol | sC5b-9/Cr MEAN (Day 17 Taper): 45.3 µg/mmol | Urine sC5b-9 GEOMEAN (Day 21 Taper): 99 ng/mL | Urine sC5b-9 MEAN (Day 21 Taper): 468 ng/mL | sC5b-9/ALB GEOMEAN (Day 21 Taper): 76.3 ng/mg | sC5b-9/ALB MEAN (Day 21 Taper): 190.1 ng/mg | sC5b-9/Cr GEOMEAN (Day 21 Taper): 15.2 µg/mmol | sC5b-9/Cr MEAN (Day 21 Taper): 58.3 µg/mmol | Urine sC5b-9 GEOMEAN (Follow-Up Day 24): 108 ng/mL | Urine sC5b-9 MEAN (Follow-Up Day 24): 724 ng/mL | sC5b-9/ALB GEOMEAN (Follow-Up Day 24): 92.3 ng/mg | sC5b-9/ALB MEAN (Follow-Up Day 24): 289.8 ng/mg | sC5b-9/Cr GEOMEAN (Follow-Up Day 24): 17.8 µg/mmol | sC5b-9/Cr MEAN (Follow-Up Day 24): 115.8 µg/mmol | Urine sC5b-9 GEOMEAN (Follow-Up Day 28): 113 ng/mL | Urine sC5b-9 MEAN (Follow-Up Day 28): 457 ng/mL | sC5b-9/ALB GEOMEAN (Follow-Up Day 28): 80.5 ng/mg | sC5b-9/ALB MEAN (Follow-Up Day 28): 200.5 ng/mg | sC5b-9/Cr MEAN (Follow-Up Day 28): 64.2 µg/mmol | Urine sC5b-9 GEOMEAN (Follow-Up Day 49): 162 ng/mL | Urine sC5b-9 MEAN (Follow-Up Day 49): 2440 ng/mL | sC5b-9/ALB GEOMEAN (Follow-Up Day 49): 123.3 ng/mg | sC5b-9/ALB MEAN (Follow-Up Day 49): 1111.7 ng/mg | sC5b-9/Cr GEOMEAN (Follow-Up Day 49): 23.5 µg/mmol | sC5b-9/Cr MEAN (Follow-Up Day 49): 159.5 µg/mmol | Urinary sC5b-9 levels (two-week treatment): reduced significantly; also recorded: reduced in all patients | Urinary sC5b-9 levels normalized to urinary creatinine or albumin (two-week treatment): reduced significantly

Source: US20210215714A1, “COMPLEMENT ALTERNATIVE PATHWAY-ASSOCIATED NEPHROPATHY BIOMARKERS” (Achillion Pharmaceuticals, Inc., priority 2018, published 2021)
